Source: ChEMBL document CHEMBL3259787, “Discovery of two aminoglycoside antibiotics as inhibitors targeting the menin-mixed lineage leukaemia interface” (Bioorg Med Chem Lett, 2014)
Calls of active or inactive are those of the source. The calls are words filed in the database; no cut-off is given here.

Columns and labels:
[1] = Inhibition of N-terminal FITC-labeled MBM1 interaction to menin (unknown origin) after 1 hr by fluorescence polarization assay; design: species or system Homo sapiens
Menin (Homo sapiens) [2] = target: T1, Menin (Homo sapiens) (UniProt O00255); experiment: Binding affinity to menin (unknown origin) assessed as thermal stability at 50 uM by differential scanning fluorimetry (reference value: 40.46 degC)
T1 sequence (whole entry): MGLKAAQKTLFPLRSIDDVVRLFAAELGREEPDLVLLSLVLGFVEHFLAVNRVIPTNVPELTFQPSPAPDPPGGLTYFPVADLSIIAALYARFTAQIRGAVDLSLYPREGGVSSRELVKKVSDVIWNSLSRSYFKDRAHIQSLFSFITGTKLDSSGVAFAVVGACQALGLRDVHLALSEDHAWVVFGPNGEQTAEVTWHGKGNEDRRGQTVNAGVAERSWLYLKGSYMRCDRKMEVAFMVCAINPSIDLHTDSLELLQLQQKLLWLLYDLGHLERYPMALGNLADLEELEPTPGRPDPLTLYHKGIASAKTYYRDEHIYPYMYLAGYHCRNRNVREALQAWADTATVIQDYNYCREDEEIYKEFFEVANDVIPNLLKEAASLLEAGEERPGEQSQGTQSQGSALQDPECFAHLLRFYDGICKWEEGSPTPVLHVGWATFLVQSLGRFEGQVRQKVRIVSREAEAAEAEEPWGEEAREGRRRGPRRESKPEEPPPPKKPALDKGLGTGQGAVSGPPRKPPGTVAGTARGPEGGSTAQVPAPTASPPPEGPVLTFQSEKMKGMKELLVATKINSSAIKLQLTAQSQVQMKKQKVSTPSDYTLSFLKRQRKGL

Menin (Homo sapiens) [3] = target: T1, Menin (Homo sapiens); experiment: Binding affinity to menin (unknown origin) assessed as thermal stability at 200 uM by differential scanning fluorimetry (reference value: 40.46 degC)
Menin (Homo sapiens) [4] = target: T1, Menin (Homo sapiens); experiment: Binding affinity to menin (unknown origin) assessed as thermal stability at 400 uM by differential scanning fluorimetry (reference value: 40.46 degC)
Menin = target: T2, Menin (Homo sapiens, UniProt O00255); experiment: (§1) Binding affinity to menin (unknown origin) by isothermal titration calorimetry analysis
T2 sequence (O00255 whole entry): T1 sequence (whole entry)

Menin (Homo sapiens) [5] = target: T1, Menin (Homo sapiens); experiment: as §1

`NC[C@@H]1O[C@H](O[C@H]2[C@@H](O)[C@H](O[C@@H]3[C@@H](O)[C@H](N)C[C@H](N)[C@H]3O[C@H]3O[C@H](CN)[C@@H](O)[C@H](O)[C@H]3N)O[C@@H]2CO)[C@H](N)[C@@H](O)[C@@H]1O` [FRAMYCETIN] gave a Ki [1] of 18.8 µM, a Tm (Menin (Homo sapiens) [2]) of 42.5 °C and a Tm (Menin (Homo sapiens) [3]) of 43.8 °C. The Tm (Menin (Homo sapiens) [4]) was 45.2 °C and the Kd (Menin) was 15.6 µM.
Compound `NC[C@H]1O[C@H](O[C@H]2[C@H](O)[C@@H](O[C@H]3O[C@H](CO)[C@@H](O)[C@H](N)[C@H]3O)[C@H](N)C[C@@H]2N)[C@H](N)C[C@@H]1O` [TOBRAMYCIN] has a Ki [1] of 59.9 µM, a Tm (Menin (Homo sapiens) [2]) of 41.4 °C and a Tm (Menin (Homo sapiens) [3]) of 42.6 °C. For the same compound, the Tm (Menin (Homo sapiens) [4]) was 43.4 °C and the Activity (Menin (Homo sapiens) [5]) was “inactive”.
